Experiments:
barnyardgrass [1] = assay: Test A pre-/postemergence herbicide test; type: in vivo, Echinochloa crus-galli; conditions: for Barnyardgrass plant response rating: Preemergence, visual rating on 0 to 100 scale (0 no effect, 100 complete control)
Outline: (§1)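 Directed soil spray to seeded pots (preemergence) or spray onto one- to two-leaf seedlings 2–10 cm tall (postemergence); loam/sand substrate throughout. Evaluated visually after about 10 days against untreated plants, 0 = no effect, 100 = complete control.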

crabgrass, large = assay: Test A pre-/postemergence herbicide test; type: in vivo, Digitaria sanguinalis; conditions: for Crabgrass, Large plant response rating: Preemergence, visual rating on 0 to 100 scale (0 no effect, 100 complete control)
Outline: as §1

giant foxtail = assay: Test A pre-/postemergence herbicide test; type: in vivo, Setaria faberii; conditions: for Foxtail, Giant plant response rating: Preemergence, visual rating on 0 to 100 scale (0 no effect, 100 complete control)
Outline: as §1

morningglory = assay: Test A pre-/postemergence herbicide test; type: in vivo, Ipomoea spp.; conditions: for Morningglory plant response rating: Preemergence, visual rating on 0 to 100 scale (0 no effect, 100 complete control)
Outline: as §1

pigweed = assay: Test A pre-/postemergence herbicide test; type: in vivo, Amaranthus retroflexus; conditions: for Pigweed plant response rating: Preemergence, visual rating on 0 to 100 scale (0 no effect, 100 complete control)
Outline: as §1

velvetleaf = assay: Test A pre-/postemergence herbicide test; type: in vivo, Abutilon theophrasti; conditions: for Velvetleaf plant response rating: Preemergence, visual rating on 0 to 100 scale (0 no effect, 100 complete control)
Outline: as §1

wheat = assay: Test A pre-/postemergence herbicide test; type: in vivo, Triticum aestivum; conditions: for Wheat plant response rating: Preemergence, visual rating on 0 to 100 scale (0 no effect, 100 complete control)
Outline: as §1

corn = assay: Test A pre-/postemergence herbicide test; type: in vivo, Zea mays; conditions: for Corn plant response rating: Preemergence, visual rating on 0 to 100 scale (0 no effect, 100 complete control)
Outline: as §1

rice = assay: Test B flooded paddy test; type: in vivo, Oryza sativa; conditions: 250 g ai/ha, Flood; scale of 0 to 100 where 0 is no effect and 100 is complete control
Procedure: (§2) Plant species in the flooded paddy test selected from rice (Oryza sativa), sedge, umbrella (small-flower umbrella sedge, Cyperus difformis), ducksalad (Heteranthera limosa), and barnyardgrass (Echinochloa crus-galli) were grown to the 2-leaf stage for testing. At time of treatment, test pots were flooded to 3 cm above the soil surface, treated by application of test compounds directly to the paddy water, and then maintained at that water depth for the duration of the test. Treated plants and controls were maintained in a greenhouse for 13 to 15 days, after which time all species were compared to controls and visually evaluated. Plant response ratings, summarized in Table B, are based on a scale of 0 to 100 where 0 is no effect and 100 is complete control. A dash (-) response means no test result.

sedge, umbrella = assay: Test B flooded paddy test; type: in vivo, Cyperus difformis; conditions: 250 g ai/ha, Flood; scale of 0 to 100 where 0 is no effect and 100 is complete control
Procedure: as §2

ducksalad = assay: Test B flooded paddy test; type: in vivo, Heteranthera limosa; conditions: 250 g ai/ha, Flood; scale of 0 to 100 where 0 is no effect and 100 is complete control
Procedure: as §2

barnyardgrass [2] = assay: Test B flooded paddy test; type: in vivo, Echinochloa crus-galli; conditions: 250 g ai/ha, Flood; scale of 0 to 100 where 0 is no effect and 100 is complete control
Procedure: as §2

[3] = Postemergence, 125 g ai/ha, 0 to 100 scale, 0 no effect, 100 complete control
[4] = Postemergence, 500 g ai/ha, 0 to 100 scale (0 no effect, 100 complete control)
[5] = preemergence, 500 g ai/ha, 0 to 100 scale (0 no effect, 100 complete control)
[6] = preemergence, 500 g ai/ha, 0 to 100 scale

| SMILES | Plant response rating, Barnyardgrass (barnyardgrass [1]; [3]) | Plant response rating, Barnyardgrass (barnyardgrass [1]; [4]) | Barnyardgrass plant response rating (barnyardgrass [1]; 125 g ai/ha) | Plant response rating, Barnyardgrass (barnyardgrass [1]; [5]) | Plant response rating, Crabgrass, Large (crabgrass, large; [3]) | Plant response rating, Crabgrass, Large (crabgrass, large; [4]) | Crabgrass, Large plant response rating (crabgrass, large; 125 g ai/ha) | Plant response rating, Crabgrass, Large (crabgrass, large; [6]) | Plant response rating, Foxtail, Giant (giant foxtail; [3]) | Plant response rating, Foxtail, Giant (giant foxtail; [4]) | Foxtail, Giant plant response rating (giant foxtail; 125 g ai/ha) | Plant response rating, Foxtail, Giant (giant foxtail; [6]) | Plant response rating, Morningglory (morningglory; [3]) | Plant response rating, Morningglory (morningglory; [4]) | Morningglory plant response rating (morningglory; 125 g ai/ha) | Plant response rating, Morningglory (morningglory; [6]) | Plant response rating, Pigweed (pigweed; [3]) | Plant response rating, Pigweed (pigweed; [4]) | Pigweed plant response rating (pigweed; 125 g ai/ha) | Plant response rating, Pigweed (pigweed; [6]) | other results |
| --- | --- | --- | --- | --- | --- | --- | --- | --- | --- | --- | --- | --- | --- | --- | --- | --- | --- | --- | --- | --- | --- |
| O=C1NCC(c2ccc(Cl)c(Cl)c2)C1C(=O)Nc1ccccc1OC(F)(F)F (racemic) [Compound 32] | 0 | 0 | 0 | 0 | 0 | 30 | 80 | 80 | 0 | 40 | 70 | 80 | 0 | 0 | 0 | 0 | 0 | 0 | 0 | 0 | Plant response rating, Velvetleaf (velvetleaf; [3]): 0; Plant response rating, Velvetleaf (velvetleaf; [4]): 0; Velvetleaf plant response rating (velvetleaf; 125 g ai/ha): 0; Plant response rating, Velvetleaf (velvetleaf; [6]): 0; Plant response rating, Wheat (wheat; [3]): 0; Plant response rating, Wheat (wheat; [4]): 0; Wheat plant response rating (wheat; 125 g ai/ha): 0; Plant response rating, Wheat (wheat; [6]): 0; Plant response rating, Corn (corn; [3]): 0; Plant response rating, Corn (corn; [4]): 0; Corn plant response rating (corn; 125 g ai/ha): 0; Plant response rating, Corn (corn; [6]): 0; Plant response rating, Rice (rice): 0; Plant response rating, Sedge, Umbrella (sedge, umbrella): 0; Plant response rating, Ducksalad (ducksalad): 50; Plant response rating, Barnyardgrass (barnyardgrass [2]): 0 |
| COc1cccc(C2CNC(=O)C2C(=O)Nc2ccccc2F)c1 (racemic) [Compound 36] | 0 | 80 | 40 | 80 | 0 | 20 | 20 | 80 | 0 | 20 | 20 | 70 | 0 | 0 | 0 | 0 | 0 | 0 | 0 | 0 | Plant response rating, Velvetleaf (velvetleaf; [3]): 0; Plant response rating, Velvetleaf (velvetleaf; [4]): 0; Velvetleaf plant response rating (velvetleaf; 125 g ai/ha): 0; Plant response rating, Velvetleaf (velvetleaf; [6]): 0; Plant response rating, Wheat (wheat; [3]): 0; Plant response rating, Wheat (wheat; [4]): 0; Wheat plant response rating (wheat; 125 g ai/ha): 0; Plant response rating, Wheat (wheat; [6]): 20; Plant response rating, Corn (corn; [3]): 0; Plant response rating, Corn (corn; [4]): 0; Corn plant response rating (corn; 125 g ai/ha): 0; Plant response rating, Corn (corn; [6]): 0; Plant response rating, Rice (rice): 0; Plant response rating, Sedge, Umbrella (sedge, umbrella): 40; Plant response rating, Ducksalad (ducksalad): 60; Plant response rating, Barnyardgrass (barnyardgrass [2]): 0 |
| Cc1cccc(C2CNC(=O)C2C(=O)Nc2ccccc2F)c1 (racemic) [Compound 38] | 0 | 30 | 0 | 80 | 0 | 50 | 70 | 80 | 0 | 20 | 0 | 30 | 0 | 0 | 0 | 0 | 0 | 0 | 0 | 0 | Plant response rating, Velvetleaf (velvetleaf; [3]): 0; Plant response rating, Velvetleaf (velvetleaf; [4]): 0; Velvetleaf plant response rating (velvetleaf; 125 g ai/ha): 0; Plant response rating, Velvetleaf (velvetleaf; [6]): 0; Plant response rating, Wheat (wheat; [3]): 0; Plant response rating, Wheat (wheat; [4]): 0; Wheat plant response rating (wheat; 125 g ai/ha): 0; Plant response rating, Wheat (wheat; [6]): 0; Plant response rating, Corn (corn; [3]): 0; Plant response rating, Corn (corn; [4]): 0; Corn plant response rating (corn; 125 g ai/ha): 0; Plant response rating, Corn (corn; [6]): 0; Plant response rating, Rice (rice): 0; Plant response rating, Sedge, Umbrella (sedge, umbrella): 0; Plant response rating, Ducksalad (ducksalad): 0; Plant response rating, Barnyardgrass (barnyardgrass [2]): 0 |
| N#Cc1cccc(C2CNC(=O)C2C(=O)Nc2ccccc2F)c1 (racemic) [Compound 72] | 20 | 60 | 0 | 50 | 30 | 70 | 80 | 90 | 10 | 50 | 60 | 80 | 0 | 10 | 0 | 0 | 0 | 0 | 0 | 0 | Plant response rating, Velvetleaf (velvetleaf; [3]): 0; Plant response rating, Velvetleaf (velvetleaf; [4]): 0; Velvetleaf plant response rating (velvetleaf; 125 g ai/ha): 0; Plant response rating, Velvetleaf (velvetleaf; [6]): 0; Plant response rating, Wheat (wheat; [3]): 0; Plant response rating, Wheat (wheat; [4]): 0; Wheat plant response rating (wheat; 125 g ai/ha): 0; Plant response rating, Wheat (wheat; [6]): 0; Plant response rating, Corn (corn; [3]): 0; Plant response rating, Corn (corn; [4]): 0; Corn plant response rating (corn; 125 g ai/ha): 0; Plant response rating, Corn (corn; [6]): 0; Plant response rating, Rice (rice): 0; Plant response rating, Sedge, Umbrella (sedge, umbrella): 0; Plant response rating, Ducksalad (ducksalad): 60; Plant response rating, Barnyardgrass (barnyardgrass [2]): 0 |

Source: patent US10294202B2, “Pyrrolidinones as herbicides” (FMC Corporation, priority 2013, dated 2019)
